For data set [1] the following is noted: in vivo; cited from earlier work.
Data set [2] relates to locally advanced or metastatic urothelial carcinoma with selected FGFR3 alterations. In words: Study BLC3001 Cohort 2: efficacy of BALVERSA versus pembrolizumab. Type of data set: in vivo, human. Particulars: (95% CI).
Method: Subjects are assigned to Cohort 1 or Cohort 2 based upon prior treatment with an anti-PD-(L)1 agent. […] Cohort 1 and Cohort 2 are assessed independently.

The text below walks through data of patent publication US20260345596A1, “TREATMENT OF LOCALLY ADVANCED OR METASTATIC UROTHELIAL CARCINOMA WITH ERDAFINITIB” (priority 2023, published 2026).

As to `CC(=O)O[C@@]12CO[C@@H]1C[C@H](O)[C@@]1(C)C(=O)[C@H](O)C3=C(C)[C@@H](OC(=O)[C@H](O)[C@@H](NC(=O)OC(C)(C)C)c4ccccc4)C[C@@](O)([C@@H](OC(=O)c4ccccc4)[C@H]21)C3(C)C` [Docetaxel], in data set [1], the Cystoid macular edema result is “Cystoid macular edema has been reported” and the Severe fluid retention result was “Severe fluid retention has been reported”.

`CC[C@]12C=CCN3CC[C@@]4(c5cc([C@@]6(C(=O)OC)C[C@@H]7C[C@@H](C(C)(F)F)CN(Cc8c6[nH]c6ccccc86)C7)c(OC)cc5N(C)[C@H]4[C@@](O)(C(=O)OC)[C@@H]1OC(C)=O)[C@@H]32` [Vinflunine]: the “Posterior reversible encephalopathy syndrome (PRES)” value in data set [1] was “Cases of posterior reversible encephalopathy syndrome (PRES) have been observed”.

For the compound “Pembrolizumab: anti-PD-(L)1 agent pembrolizumab, 200 mg every 3 weeks”, the “Median OS” value in data set [2] is recorded as 11.1 (95% CI: 9.7, 13.6) months.
